From US6528655B1, “Aromatic derivatives with HIV integrase inhibitory properties” (Pharmacor, Inc., priority 2000, dated 2003)
Like-named read-outs stand apart in the source and are kept apart here.

Target: HIV-1 integrase (Human immunodeficiency virus type 1 group M subtype B, UniProt P04585)
Test: HIV-1 integrase inhibition assay (radiolabeled duplex substrate corresponding to the U5 end of the HIV LTR)
Format: biochemical
Description: For the purpose of Table 1 to 4, the HIV-1 integrase inhibition assay was carried out following a known procedure (Burke, Jr. T. R. et al., J. Med. Chem. 38, 4171-4178 (1995)). A suitable radiolabeled duplex substrate corresponding to the U5 end of the HIV LTR was used.
For the purposes of Table 1 to 4 the HIV-1 integrase inhibition assay was based on a known procedure (Hazuda, D. J. et al., Nucleic Acids Res. 22 1121-1122 (1994)).

Compound | IC50 [nM] | IC50 (Table 2, compounds of formula III′, read-out: IC50) [nM]
COc1ccc(NC(=O)[C@H](CCC(=O)NC(c2ccccc2)(c2ccccc2)c2ccccc2)NC(=O)c2ccc(OCc3ccc(F)cc3)c(OCc3ccc(F)cc3)c2)cc1O [Example 111, N-[Nα-(3,4-di-(4-Fluorobenzyloxy)benzoyl)-Nδ-trityl-L-glutaminyl]-3-hydroxy-4-methoxyaniline] | 6100 | 
COc1ccc(OC)c(NC(=O)[C@H](CCC(=O)NC(c2ccccc2)(c2ccccc2)c2ccccc2)NC(=O)/C=C/c2ccc(O)c(O)c2)c1 [Example 82, N-(Nα-Caffeoyl-Nδ-trityl-L-glutaminyl)-2,5-dimethoxyaniline] | 2550 | 
CC(C)(C)OC(=O)CC[C@H](NC(=O)c1cc(O)c2cccc(O)c2n1)C(=O)NCCc1cccs1 [Example 105, N-[Nα-(4,8-Dihydroxyquinoline-2-carbonyl)-Oδ-tert-butyl-L-glutamyl]-2-(2′-thiophenyl)ethylamine] | > 10000 | 
O=C(O)CC[C@H](NC(=O)c1cc(O)c2cccc(O)c2n1)C(=O)NCCc1cccs1 [Example 106, N-[Nα-(4,8-Dihydroxyquinoline-2-carbonyl)-L-glutamyl]-2-(2′-thiophenyl)ethylamine] | > 10000 | 
COc1ccc(OC)c(NC(=O)[C@H](CCC(=O)NC(c2ccccc2)(c2ccccc2)c2ccccc2)NC(=O)c2cc3ccccc3[nH]2)c1 [Example 84, N-[Nα-(Indole-2-carbonyl)-Nδ-trityl-L-glutaminyl]-2,5-dimethoxyaniline] | 4100 | 
O=C(N[C@@H](Cc1cn(C(c2ccccc2)(c2ccccc2)c2ccccc2)cn1)C(=O)O)c1ccc(O)c(O)c1 [Example 29, Nα-(3,4-Dihydroxybenzoyl)-Nτ-trityl-L-histidine] | 1600 | 
CC(C)(C)OC[C@H](NC(=O)Cc1cccs1)C(=O)NCCc1ccc(O)c(O)c1 [Example 87] | > 10000 | 
Cc1ccc(C(NC(=O)CC[C@H](NC(=O)c2ccc(O)c(O)c2)C(=O)NCCc2ccc(O)c(O)c2)(c2ccccc2)c2ccccc2)cc1 [Example 49, N-[Nα-(3,4-Dihydroxybenzoyl)-Nδ-methyltrityl-L-glutaminyl]dopamine] | 1300 | 
Nα,Nε-di-(3,5-Dihydroxynaphthyl-2-carbonyl)-L-lysine [Example 65] |  | > 5000
O=C(N[C@@H](Cc1ccc(O)cc1)C(=O)NNC(=O)c1ccccc1O)c1cc(O)c2cccc(O)c2n1 [Example 73, N1-[Nα-(4,8-Dihydroxyquinoline-2-carbonyl)-L-tyrosyl]-N2-(2-hydroxybenzoyl)-hydrazine] | 2200 | 
O=C(N[C@@H](Cc1cn(-c2ccc([N+](=O)[O-])cc2[N+](=O)[O-])cn1)C(=O)NCCc1ccc(O)c(O)c1)c1ccc(O)c(O)c1 [Example 21, N-[Nα-(3,4-Dihydroxybenzoyl)-Nτ-(2,4-dinitrophenyl)-L-histidinyl]dopamine] | 151 | 
Nc1cc(C(=O)N[C@H](Cc2cn(C(c3ccccc3)(c3ccccc3)c3ccccc3)cn2)C(=O)NCCc2ccc(O)c(O)c2)ccc1O [Example 2, N-[Nα-(3-Amino-4-hydroxybenzoyl)-Nτ-trityl-D-histidinyl]dopamine] | > 5000 | 
O=C(N[C@@H](Cc1c[nH]c2ccccc12)C(=O)NNC(=O)c1ccccc1O)c1cc(O)c2cccc(O)c2n1 [Example 77, N1-[Nα-(4,8-Dihydroxyquinoline-2-carbonyl)-L-tryptophanyl]-N2-(2-hydroxybenzoyl)-hydrazine] | 4700 | 
O=C(N[C@@H](Cc1c[nH]c2ccccc12)C(=O)NCCc1ccc(O)c(O)c1)c1cc2cccc(O)c2cc1O [Example 59, N-[Nα-(3,5-Dihydroxynaphthyl-2-carbonyl)-L-tryptophanyl]dopamine] | 620 | 
